The text below walks through data of patent US20250074905A1, “AKT3 MODULATORS” (Georgiamune Inc., priority 2021, published 2025).

The assay relates to Foxp3 induction in CD4 conventional T cells (iTreg induction). Kind of assay: Foxp3 induction assay. The class given is cell-based, C57/B16 mice. The conditions noted are these: T-cell, 72 h; mouse CD4 Tconvs, anti-CD3/anti-CD28, IL2, TGF-β, 3 days of culture, flow cytometry; read-out: IC50 value as measured by the Foxp3 induction assay. The procedure:
Sorted or enriched (Miltenyi magnetic separation) CD4 conventional T cells (Tconvs −CD4+/CD25) from C57/B16 mice were used for the induction of iTregs. A 10 µg/mL plate-bound anti-CD3 antibody (50 ul per well for 96-well plate), […] of soluble anti-CD28 antibody, 100 IU/mL of IL2 and 5 ng/mL of TGF-β in absence or presence of different concentrations of drug (usually titrating from 0.01 uM to 10 uM) were used. As negative control for induction, samples without TGF-β were used.
After 3 days of culture in presence of stimulation, TGF-β and drug, cells were stained with fixable live/dead cell stain (Life Technologies, NY) for gating and exclusion of toxic doses. The mouse Foxp3 buffer kit was used to fix and permeabilize cells according to the manufacturer's instructions (BD Bioscience, San Jose, CA). The anti-CD4 antibody and anti-Foxp3 antibody were used to stain the cells. After staining, cells were acquired using flow cytometer.
For orientation: In flow cytometry, cells or beads pass a laser one at a time.

In the case of `O=C(Nc1ccc2c(c1)Nc1ccncc1CC2)c1ccc(Nc2ccncc2)cc1` [Compound 1, N-(10,11-dihydro-5H-benzo[b]pyrido[3,4-f]azepin-7-yl)-4-(pyridin-4-ylamino)benzamide], the IC50 was less than 1000 nM.

Usually IC50 stands for the midpoint of a concentration-inhibition curve.
